13 compounds from US6812232B2, “Heterocycle substituted purine derivatives as potent antiproliferative agents” (AMR Technology, Inc., priority 2001, dated 2004) can be followed below.

The term GI50 denotes the concentration giving 50% growth inhibition. The low end stands for greater sensitivity of the cells, the high end for lower sensitivity of the cells. Usually melting point stands for the temperature, or range, at which the solid turns liquid.

The target in series [1] is T1, CyclinB/cdk1 (Homo sapiens, UniProt P06493).
T1 construct: Monoclonal antibody against cyclinB (GNS1) is added to the supernatant; endogenous in cells
T1 sequence (P06493 whole entry): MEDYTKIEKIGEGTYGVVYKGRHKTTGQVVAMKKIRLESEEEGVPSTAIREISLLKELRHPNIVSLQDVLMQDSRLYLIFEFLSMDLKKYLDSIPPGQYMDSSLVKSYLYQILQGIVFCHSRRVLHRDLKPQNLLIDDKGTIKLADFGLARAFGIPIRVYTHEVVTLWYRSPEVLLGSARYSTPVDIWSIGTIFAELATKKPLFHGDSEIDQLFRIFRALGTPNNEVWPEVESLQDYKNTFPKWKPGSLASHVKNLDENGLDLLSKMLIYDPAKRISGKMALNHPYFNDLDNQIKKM
T1 sequence (P14635 whole entry partner): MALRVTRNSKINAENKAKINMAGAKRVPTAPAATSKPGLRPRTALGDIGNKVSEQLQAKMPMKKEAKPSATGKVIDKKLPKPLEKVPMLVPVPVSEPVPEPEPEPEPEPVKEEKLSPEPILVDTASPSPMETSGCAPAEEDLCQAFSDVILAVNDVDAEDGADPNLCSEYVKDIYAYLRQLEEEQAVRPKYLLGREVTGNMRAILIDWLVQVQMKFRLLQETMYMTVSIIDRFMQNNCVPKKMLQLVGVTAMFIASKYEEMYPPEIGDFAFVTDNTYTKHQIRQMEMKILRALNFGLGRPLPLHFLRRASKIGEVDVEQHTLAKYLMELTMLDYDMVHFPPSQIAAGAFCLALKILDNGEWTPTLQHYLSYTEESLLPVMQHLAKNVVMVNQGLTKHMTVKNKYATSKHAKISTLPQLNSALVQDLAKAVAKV
The series can be described thus: CyclinB/cdk1 protein kinase assay (histone H1 phosphorylation). Format: biochemical. The settings on record: Table 2; complexes isolated from HeLa cells, histone H1, 15 μM ATP; replicate experimental results; read-out: IC50 CyclinB/cdkl.
Method: HeLa cells are blocked at the G1/S border by culturing in the presence of 2 mM thymidine for 20 h. The cells are then rinsed 3× in phosphate buffered saline and resuspended in regular medium. After 4 h of culture, the mitotic blocker, nocodazole is added to a final concentration of 75 ng/ml. […] The lysate is then clarified by centrifugation at 10,000×g for 10 min. The supernatant is collected and diluted 1:5 with Lysis Buffer. Monoclonal antibody against cyclinB (GNS1) is added to the supernatant to a final concentration of 5 μg/ml and shaken at 4° C. for 2 h. The immune complexes are then collected by the addition of 200 μl of protein agarose beads for 1 h. The beads are washed 4× in lysis buffer and 1× in kinase assay buffer.
Duplicate assays were performed at each concentration.

For series [2], the system named is HeLa S-3 cells. The series can be described thus: Inhibition of cell growth (SRB), HeLa. Format: cell-based, human. The settings on record: Table 2, 2 days of treatment, replicate experimental results. How it is done: D. Measuring the Inhibition of Cell Growth.
Growth inhibition (GI50) values were measured with HeLa S-3 cells selected for growth on plastic. […] One day later, a control plate was fixed by addition of TCA to 5%. After five rinses with tap water the plate was air dried and stored at 4° C. Test compounds were added to the remaining plates at 10-fold dilutions between 0.01 and 100 μM. Two days later all plates were fixed as described above. Cells were then stained by the addition of 100 […] of 0.4% sulforhodamine B (SRB) in 1% acetic acid for 30 min at 4° C. Wells were then quickly rinsed 5× with acetic acid (1%) and allowed to air dry. The SRB was then solubilized by the addition of 100 μl per well of unbuffered 10 mM Tris base. Dye was quantified by measuring absorbance at 490 nm on a Molecular Devices kinetic microplate reader. Growth at each inhibitor concentration relative to the untreated control was calculated according to the following equation: percent growth=100×(T−To)/(C−To), where T was the average optical density (OD) of the test wells after 2 days of treatment, To was the average OD of the wells in the control plate on day 0 and C was the average OD of untreated wells. Plots of percent growth versus inhibitor concentration were used to determine the GI50.

Values joined by “and” are separate entries in the source; they are usually repeats but may differ in a detail not shown here. Identical values can stand only once. A value given as a limit tells only on which side of the number the result lay.

Turning to `CC[C@H](CO)Nc1nc(NCc2ccc(-c3cccc([N+](=O)[O-])c3)cc2)c2ncn(C(C)C)c2n1` [Compound 48], the IC50 in series [1] is above 10000 nM.

With `CC(C)n1cnc2c(NCc3ccc(-c4ccsc4)cc3)nc(N[C@H]3CC[C@H](NC(=O)OC(C)(C)C)CC3)nc21` [Compound 130], in series [2], the GI50 was above 10000 nM.

On to `CC(C)n1cnc2c(NCc3cccc(-c4ccsc4)c3)nc(N[C@H]3CC[C@H](N)CC3)nc21` [Compound 131], for which the melting point lay within 211 to 216 °C. Besides, halving of growth in series [2] (Homo sapiens, HeLa S3, 48 h) (GI50) required 3000 nM. In series [2], this compound displayed a concentration for 50% growth inhibition (GI50) of 2000 nM.

As for `CC(=O)N[C@H]1CC[C@H](Nc2nc(NCc3cccc(-c4ccsc4)c3)c3ncn(C(C)C)c3n2)CC1` [Compound 132], the melting point was in the range of 209 to 211 °C. This compound gave a 50% growth inhibitory concentration (GI50) in series [2] (Homo sapiens, HeLa S3, 48 h) of 4000 nM. This compound also yielded a GI50 in series [2] of 3000 nM.

In turn, `CC(C)n1cnc2c(NCc3ccc(-c4ccccc4)cc3)nc(N[C@H]3CC[C@H](NC(=O)OC(C)(C)C)CC3)nc21` [Compound 133] gave a concentration for 50% growth inhibition (GI50) in series [2] above 10000 nM.

Consider `CC(=O)NC1CCC(Nc2nc(NCc3ccc(-c4cccc(C)c4)cc3)c3ncn(C(C)C)c3n2)CC1` (centres unmarked) [Compound 178], for which, in series [2], the GI50 is 400 nM and 200 nM.

In the case of `COc1cccc(-c2ccc(CNc3nc(NC4CCC(NC(C)=O)CC4)nc4c3ncn4C(C)C)cc2)c1` (centres unmarked) [Compound 180], the concentration for 50% growth inhibition (GI50) in series [2] is 400 nM and 300 nM.

In turn, `CC(=O)N[C@H]1CC[C@H](Nc2nc(NCc3ccc(-c4cccc(F)c4)nc3)c3ncn(C(C)C)c3n2)CC1` [Compound 188] gave a melting point of 199 to 230 °C.

`CC(=O)N[C@H]1CC[C@H](Nc2nc(NCc3ccc(-c4ccco4)nc3)c3ncn(C(C)C)c3n2)CC1` [Compound 206] gave a melting point of 216 to 218 °C.

On to `CC(=O)NCCNc1nc(NCc2ccc(-c3ccccc3)cc2)c2ncn(C(C)C)c2n1` [Compound 208], for which the 50% growth inhibitory concentration (GI50) in series [2] was 4000 nM and 3000 nM.

For the compound `CC(C)n1cnc2c(NCc3ccc(-c4ccccc4)cn3)nc(N[C@H]3CC[C@H](N)CC3)nc21` [Compound 229], the GI50 in series [2] (Homo sapiens, HeLa S3, 48 h) was found to be 400 nM.

For `COC(=O)NC1CCC(Nc2nc(NCc3ccc(-c4ccccc4)cc3)c3ncn(C(C)C)c3n2)CC1` (centres unmarked) [Compound 259], the GI50 in series [2] is 300 nM and 400 nM and 700 nM.

For `CC(C)n1cnc2c(NCc3ccc(-c4ccccc4)cc3)nc(NC3CCC(NC(=O)C4CC4)CC3)nc21` (centres unmarked) [Compound 261], growth in series [2] was halved (GI50) at 300 nM.
